# Reference: patent US9464064B2, “HCV helicase inhibitors and methods of use thereof” (University of Kansas, priority 2011, dated 2016)
# Where two headings read alike, the source gives them in different places.
# Tests used:
# Huh-7.5 cells = assay: Cell viability assay ([…]-GLO); type: cell-based, human; settings: for Cell viability (% viable): 10 μM compound, triplicate, average ± SD
# Method: To assess compound toxicity toward Huh-7.5 cells, cells were plated and treated as above and cell viability was assessed using the […]-GLO luminescent cell viability kit (PROMEGA) following the manufacturer's instructions. Briefly, at the end of a 72 hour incubation period, the medium was aspirated and the cells were washed with 1×PBS, then an equal volume of growth medium and […]-GLO reagent was added and the lysis was initiated by mixing on an orbital shaker. The plate was incubated at 23° C. for 30 minutes and the luciferase activity was measured for 1 second using the FLUOSTAR Omega microplate reader (BMG Labtech).
# [1] = biological target: T1, HCV NS3 helicase NS3h_1b(con1) (Hepatitis C virus genotype 1b, UniProt Q9WMX2); assay: biochemical; type: biochemical, hepatitis C virus genotype 1b(con1)
# T1 construct: truncated C-terminally His-tagged NS3 proteins lacking the N-terminal protease, called NS3h; His-tag (C); made in house
# T1 sequence (Q9WMX2 1192-1657): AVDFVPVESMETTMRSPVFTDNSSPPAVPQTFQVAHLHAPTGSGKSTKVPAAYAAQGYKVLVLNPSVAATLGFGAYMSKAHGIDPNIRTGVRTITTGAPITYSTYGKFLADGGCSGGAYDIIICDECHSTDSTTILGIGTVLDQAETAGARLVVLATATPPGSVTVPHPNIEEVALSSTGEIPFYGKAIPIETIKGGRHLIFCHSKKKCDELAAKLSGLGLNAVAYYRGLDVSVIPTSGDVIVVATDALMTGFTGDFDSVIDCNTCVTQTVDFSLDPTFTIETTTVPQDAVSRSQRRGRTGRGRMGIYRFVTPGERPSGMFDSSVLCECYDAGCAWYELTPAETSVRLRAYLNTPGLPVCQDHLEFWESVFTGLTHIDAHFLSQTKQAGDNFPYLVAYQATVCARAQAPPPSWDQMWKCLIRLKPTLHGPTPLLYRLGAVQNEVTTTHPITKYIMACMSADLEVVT
# From the text: All oligonucleotides were purchased from Integrated DNA Technologies (IDT, Coralville, Iowa). The partially duplex DNA substrates used in MBHAs consisted of a helicase substrate forming 25 base pairs and consists of a 45-mer bottom strand 5′-GCTCCCCGTTCATCGATTGGGGAGC(T)20-3′ (SEQ ID NO:1) and the 25-mer HCV top strand 5′-Cy5-GCTCCCCAATCGATGAACGGGGAGC-IBRQ-3′ (SEQ ID NO:2). The 19 base pair RNA substrate used in MBHAs was composed of a 39 nucleotide long bottom strand 5′-AGU GCC UUG ACG AUA CAG C(U)20-3′ (SEQ ID NO:3) and the 24 nucleotide long top strand 5′-Tye^665-AGUGCGCUGUAUCGUCAAGGCACU-IBRQSp-3′ (SEQ ID NO:4). Underlined areas denote hairpin-forming regions. DNA and RNA substrates were annealed and purified as described previously (Belon & Frick (2008) BioTechniques 45:433-40, 442).
# The cloning, expression, and purification of His-tagged recombinant HCV NS3 protein have been described previously (Lam, et al. (20030 J. Virol. 77:3950-61; Heck, et al. (2008) Antimicrob. Agents Chemother. 52:1901-11; Frick et al. (2010) Methods Mol. Biol. 587:223-233; Belon, et al. & Frick (2009) J. Mol. Biol. 388:851-864).
# All molecular beacon-based helicase assays (MBHAs) were performed according to known methods (Belon & Frick (2008) supra; Belon & Frick (2009) supra). […] In each flat, black 384-well plate, 56 compounds were tested, in triplicate, along with three negative controls (DMSO only), three positive controls (500 nM dT20), and two wells with no enzyme. Fluorescence was read before ATP (F0) addition and 30 minutes after ATP was added to 1 mM (F30) using a Tecan Infinite M200 fluorescence microplate reader with excitation and emission wavelengths set to 643 and 670 nm, respectively. Percent inhibition was calculated with equation 1, and compound interference in the MBHA was calculated with equation 2.
# To monitor helicase reaction kinetics and to calculate IC50 values, MBHAs were performed in 60 μL in white ½ area 96-well plates and measured in a Thermo Varioscan Multimode reader (Thermo Scientific) using the 643 nm excitation wavelength and 667 emission wavelengths. Reactions were again performed by first incubating all components except for ATP for two minutes, then initiated by injecting in 1/10 volume of ATP such that the final concentration of all components was as noted above. Conditions were as described above except that 5% v/v DMSO was present in each assay. Initial reaction velocities were calculated by fitting first-order decay equation to data obtained after ATP addition and calculating an initial velocity form the resulting amplitude and rate constant.
# [formula] where, v0 is the velocity observed in DMSO-only controls inhibition, h is the Hillslope coefficient, [I] is the concentration of test compound.
# NS3h_2a(JFH1) = biological target: T2, NS3h_2a(JFH1) (Hepatitis C virus genotype 2a, UniProt Q99IB8); assay: MBHA, DNA substrate, genotype 2a helicase; type: biochemical, hepatitis C virus genotype 2a(JFH1)
# T2 construct: truncated C-terminally His-tagged NS3 proteins lacking the N-terminal protease, called NS3h; His-tag (C); made in house
# T2 sequence (Q99IB8 1196-1661): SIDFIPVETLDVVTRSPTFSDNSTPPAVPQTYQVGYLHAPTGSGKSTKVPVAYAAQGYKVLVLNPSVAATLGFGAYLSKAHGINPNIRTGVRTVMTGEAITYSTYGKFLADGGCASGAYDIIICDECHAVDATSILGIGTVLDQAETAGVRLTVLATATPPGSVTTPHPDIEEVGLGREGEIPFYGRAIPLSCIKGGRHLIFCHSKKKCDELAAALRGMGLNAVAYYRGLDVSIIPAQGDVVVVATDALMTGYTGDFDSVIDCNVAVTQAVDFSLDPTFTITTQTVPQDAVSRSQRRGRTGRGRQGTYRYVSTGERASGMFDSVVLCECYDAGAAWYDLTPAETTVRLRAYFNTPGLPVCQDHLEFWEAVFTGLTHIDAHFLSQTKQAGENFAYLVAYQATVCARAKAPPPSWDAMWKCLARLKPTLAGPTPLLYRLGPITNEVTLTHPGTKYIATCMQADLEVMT
# Method: All oligonucleotides were purchased from Integrated DNA Technologies (IDT, Coralville, Iowa). Primuline derivatives were synthesized and purified as described herein. Three different NS3 proteins were used in this study. Two were truncated C-terminally His-tagged NS3 proteins lacking the N-terminal protease, called NS3h, the third was a full-length NS3 with the portion of NS4A needed for protease activation fused to its N-terminus, called scNS4A-NS3 (Howe, et al. (1999) Protein Sci. 8:1332-41), and the fourth was a 23 kDa scNS4A-NS3 protease fragment lacking the helicase domains, called scNS4A-NS3p (Protein One, Rockville, Md.). NS3h was expressed from two different HCV strains. NS3h_1b(con1) was from the con1 strain of genotype 1b (GENBANK accession AB114136), and NS3h_2a(JFH1) was from the JFH1 strain of HCV genotype 2a (GENBANK accession AJ238799). […] His-tagged recombinant NS3h_1b(con1), NS3h_2a(JFH1), and scNS4A-NS3 (also from genotype 1b(con1)) were expressed, and purified as previously described (Frick, et al. (2010) supra; Lam, et al. (2003) J. Virol. 77:3950-3961). The scNS4A-NS3p (genotype 1b) was from Protein One. A plasmid expressing NS3h from dengue virus strain 2 (NS3h_DV2)(GENBANK accession 2BMF) is known in the art (Xu, et al. (2005) J. Virol. 79:10278-10288), and used to express and purify NS3h_DV2 (Belon, et al. (2010) supra)
# Compounds that specifically target less conserved regions of a HCV protein are often not potent inhibitors of the same protein derived from other genotypes, and they might be susceptible to rapid evolution of related viruses. As described herein, primuline derivatives can inhibit HCV helicase isolated from the genotype 1b(con1) strain. Therefore to further analyze specificity, the subset of primuline analogs was tested on the helicase isolated from the genotype 2a(JFH1) strain. The two recombinant proteins differ at 83 of their 480 amino acids. The JHF1 strain is also of interest because it serves as the backbone for HCV strains capable of replicating in cell culture (Wakita, et al. (2005) Nat. Med. 11:791-796). The molecular beacon-based helicase assay (MBHA) (Belon & Frick (2008) supra) was used to measure the ability of each compound to inhibit DNA unwinding catalyzed by NS3h isolated from genotype 2a(JFH1) (NS3h_2a(JFH1)). […] Selected compounds were also tested for the ability to inhibit helicase reactions catalyzed by full-length NS3 and a single chain NS4A-NS3 protein (scNS4A-NS3) described below and used for protease assays.
# [2] = genotype 1b (con1), read-out: Target Potency MBHA (IC50 avg., μM) 1b (con1)
# [3] = standard HCV helicase MBHA (Table 9), read-out: DNA Unwinding IC50
# [4] = genotype 2a (JFH1), read-out: Target Potency MBHA (IC50 avg., μM) 2a (JFH1) (converted)
# [5] = MBHA, DNA unwinding, mean ± SD of three titrations, read-out: Helicase IC50
# [6] = DNA-based MBHA, genotype 1b, read-out: DNA Helicase NS3h_1b IC50 (μM) ± SD
# [7] = DNA-based MBHA, genotype 2a(JFH1), read-out: DNA Helicase NS3h_2a IC50 (μM) ± SD
Structure (SMILES),Cell Viability (% @ 10 μM) (Huh-7.5 cells) [%],"IC50 [1, 2] [µM]","IC50 [1, 3] [µM]",IC50 (NS3h_2a(JFH1); [4]) [µM],Cell viability (% viable) (Huh-7.5 cells) [%],"IC50 [1, 5] [µM]","IC50 [1, 6] [µM]",times lower affinity towards NS3 than P4 ([1]; versus P4),IC50 (NS3h_2a(JFH1); [7]) [µM]
Cc1ccc2nc(-c3ccc4nc(-c5ccc(NC(=S)Nc6ccccc6)cc5)sc4c3)sc2c1S(=O)(=O)O.N [Compound 50],98 ± 10,9.3 ± 3.8,9 ± 4,9.6,,,,,
Cc1ccc2nc(-c3ccc4nc(-c5ccc(NC(=O)Nc6ccc(C(F)(F)F)cc6)cc5)sc4c3)sc2c1S(=O)(=O)O.N [Compound 47],99 ± 7,5.1 ± 3.3,5 ± 3,4,,,,,
"Cc1ccc2nc(-c3ccc4nc(-c5ccc(NC(=O)c6cccc(C(F)(F)F)c6)cc5)sc4c3)sc2c1S(=O)(=O)O [Compound 20, 6-methyl-2′-(4-(3-(trifluoromethyl)benzamido)phenyl)-[2,6′-bibenzo[d]thiazole]-7-sulfonic acid]",121 ± 3,19.7 ± 12,,15.9 ± 2,121 ± 3,20 ± 12,,,
"Cc1ccc2nc(-c3ccc4nc(-c5ccc(NC(=O)c6c(F)cccc6C(F)(F)F)cc5)sc4c3)sc2c1S(=O)(=O)O [Compound 21, 2′-(4-(2-fluoro-6-(trifluoromethyl)benzamido)phenyl)-6-methyl-[2,6′-bibenzo[d]thiazole]-7-sulfonic acid]",122 ± 2,16.8 ± 6,17 ± 6,54 ± 19.7,122 ± 2,17 ± 6,,,
Cc1ccc2nc(-c3ccc(NC(=O)c4ccc(NC(=O)c5ccc(N)cc5)cc4)cc3)sc2c1S(=O)(=O)O.N [Compound 46],112 ± 5,30 ± 3.8,29 ± 4,26,,,,,
Cc1ccc2nc(-c3ccc4nc(-c5ccc(NS(=O)(=O)c6ccc(C(F)(F)F)cc6)cc5)sc4c3)sc2c1S(=O)(=O)O,101 ± 6,32 ± 16,,35,,,,,
"Cc1ccc(C(=O)Nc2ccc(-c3nc4ccc(-c5nc6ccc(C)c(S(=O)(=O)O)c6s5)cc4s3)cc2)cc1 [Compound 11, 6-methyl-2′-(4-(4-methylbenzamido)phenyl)-[2,6′-bibenzo[d]thiazole]-7-sulfonic acid]",87 ± 4,3.3 ± 0.3,3,2.5 ± 0.5,87 ± 4,3.3 ± 0.3,,,
Cc1ccc2nc(-c3ccc(NC(=O)c4ccc(NC(=S)Nc5ccccc5)cc4)cc3)sc2c1S(=O)(=O)O.N [Compound 43],106 ± 3,29 ± 6.9,29 ± 7,29,,,,,
"Cc1ccc2nc(-c3ccc4nc(-c5ccc6nc(-c7ccc(N)cc7)sc6c5)sc4c3)sc2c1S(=O)(=O)O [Compound P3, 2″-(4-aminophenyl)-6-methyl-[2,6′:2′,6″-terbenzo[d]thiazole]-7-sulfonic acid]",,,,,,0.9 ± 0.1,,,
Cc1ccc2nc(-c3ccc4nc(NC(=O)c5ccc6ncoc6c5)sc4c3)sc2c1,28 ± 5,60 ± 6.1,,75 ± 32.6,,,,,
Cc1ccc2nc(-c3ccc4nc(-c5ccc(NC(=O)Nc6ccc(Cl)cc6)cc5)sc4c3)sc2c1S(=O)(=O)O [Compound 54],98 ± 1,3.6 ± 0.9,4 ± 1,4.4,,,,,
Cc1ccc2nc(-c3ccc(NC(=O)c4ccc(N)cc4)cc3)sc2c1S(=O)(=O)O,103 ± 6,69 ± 26,,64,,,,,
"Cc1ccc2nc(-c3ccc4nc(-c5ccc(NC(=O)c6ccncc6)cc5)sc4c3)sc2c1S(=O)(=O)O [Compound 32, 2′-(4-(isonicotinamido)phenyl)-6-methyl-[2,6′-bibenzo[d]thiazole]-7-sulfonic acid]",117 ± 5,,,52 ± 25,117 ± 5,,,,
Cc1ccc2nc(-c3ccc(NC(=S)Nc4ccccc4Br)cc3)sc2c1,39 ± 10,> 100,,> 100,,,,,
"Cc1ccc2nc(-c3ccc4nc(-c5ccc(N)cc5)sc4c3)sc2c1S(=O)(=O)O [Compound P2a, 2′-(4-aminophenyl)-6-methyl-[2,6′-bibenzo[d]thiazole]-7-sulfonic acid]",,,6 ± 2,,,49,45 ± 14,10-20 times,58 ± 51
"Cc1ccc2nc(-c3ccc4nc(-c5ccc6nc(-c7ccc8nc(-c9ccc(N)cc9)sc8c7)sc6c5)sc4c3)sc2c1S(=O)(=O)O [Compound P4, 2′″-(4-aminophenyl)-6-methyl-[2,6′:2″,6′″-quaterbenzo[d]thiazole]-7-sulfonic acid]",,,,,,0.8,2 ± 0.1,,1 ± 0.3
"Cc1ccc2nc(-c3ccc4nc(-c5ccc(NC(=O)c6cccnc6)cc5)sc4c3)sc2c1S(=O)(=O)O [Compound 31, 6-methyl-2′-(4-(nicotinamido)phenyl)-[2,6′-bibenzo[d]thiazole]-7-sulfonic acid]",113 ± 6,,,48,113 ± 6,,,,
